Results: BindingDB's records for doi:10.1021/jm000541z (Abbott Laboratories, 2001)

Target: Alpha-1B adrenergic receptor (Mesocricetus auratus) (UniProt P18841)
Assay: Binding affinity to hamster alpha-1B adrenergic receptor

Sequence of Alpha-1B adrenergic receptor (Mesocricetus auratus) (P18841 whole entry, looked up): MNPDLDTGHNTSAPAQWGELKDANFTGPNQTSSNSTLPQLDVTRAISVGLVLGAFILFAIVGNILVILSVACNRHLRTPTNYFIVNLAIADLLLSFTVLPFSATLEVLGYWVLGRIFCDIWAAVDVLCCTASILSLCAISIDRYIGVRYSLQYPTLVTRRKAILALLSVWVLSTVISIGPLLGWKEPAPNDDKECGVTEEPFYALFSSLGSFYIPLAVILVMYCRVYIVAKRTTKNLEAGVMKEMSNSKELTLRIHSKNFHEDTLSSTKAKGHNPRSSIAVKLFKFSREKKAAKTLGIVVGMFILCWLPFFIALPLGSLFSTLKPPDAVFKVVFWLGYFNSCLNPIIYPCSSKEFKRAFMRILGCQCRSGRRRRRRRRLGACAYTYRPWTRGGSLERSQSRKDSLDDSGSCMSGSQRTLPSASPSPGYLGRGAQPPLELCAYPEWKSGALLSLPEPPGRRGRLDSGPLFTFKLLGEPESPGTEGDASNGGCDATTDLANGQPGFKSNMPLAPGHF

## COc1cccc2c1CC[C@H]1CN(CCn3c(=O)[nH]c4c(OC)cccc4c3=O)C[C@@H]21 [8-Methoxy-3-[2-(6-methoxy-1,3,3a,4,5,9b-hexahydro-benzo[e]isoindol-2-yl)-ethyl]-1H-quinazoline-2,4-dione]
  Ki: 2.27 nM

## COc1cccc2c1CC[C@H]1CN(CCn3c(=O)[nH]c4cc([N+](=O)[O-])ccc4c3=O)C[C@@H]21 [3-[2-(6-Methoxy-1,3,3a,4,5,9b-hexahydro-benzo[e]isoindol-2-yl)-ethyl]-7-nitro-1H-quinazoline-2,4-dione]
  Ki: 3.33 nM
